Measured values reported in patent US8338565B2, “Macrocyclic compounds for inhibition of tumor necrosis factor alpha” (Ensemble Therapeutics Corporation, priority 2008, dated 2012).
Numbered stars: 1 amine (or outer) side, 2 acyl side, 3 side chain; on linkers, the order of the positions; unused ones are H or OH. Bridge positions count the residues as written; N and C are the ends. Square brackets hold non-standard residues; d marks the D form. Peptide text beside a SMILES is read from it. Tartaroyl(2R,3R-(OAc)2) = CC(=O)O[C@@H](C(=O)[*:1])[C@@H](OC(C)=O)C(=O)[*:2]; Phe(4-COOH) = N[C@@H](Cc1ccc(C(=O)O)cc1)C(=O)O; Bip = N[C@@H](Cc1ccc(-c2ccccc2)cc1)C(=O)O; dBip = N[C@H](Cc1ccc(-c2ccccc2)cc1)C(=O)O; dPhe(4-NH2) = Nc1ccc(C[C@@H](N)C(=O)O)cc1; dPhe(4-Br) = N[C@H](Cc1ccc(Br)cc1)C(=O)O; Phe(4-NH2) = Nc1ccc(C[C@H](N)C(=O)O)cc1; d(hPhe) = N[C@H](CCc1ccccc1)C(=O)O; hPhe = N[C@@H](CCc1ccccc1)C(=O)O; 3Pal = N[C@@H](Cc1cccnc1)C(=O)O; 2Thi = N[C@@H](Cc1cccs1)C(=O)O; d2Thi = N[C@H](Cc1cccs1)C(=O)O; Suc = O=C(CCC(=O)[*:2])[*:1]; GABA = NCCCC(=O)O; βAla = NCCC(=O)O

Target: T1, TNFα / TNFα receptor (TNFα R1/Fc) (Homo sapiens, UniProt P01375)
T1 construct: purchased R&D Systems
Assay: Inhibition of binding of TNFα to the TNFα receptor (plate ELISA competition)
Settings: Table 2; read-out: Activity (IC50, inhibition of TNFα binding to TNFα R1/Fc)
Method in brief: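 Plates were coated with TNFα at 15 nM. Test compound and 8.33 nM receptor-Fc (PBST, 2% DMSO) were first mixed in solution for 30 min at room temperature, then transferred to the plates for another 30 min. Competition was read by absorbance at 450 nm after HRP anti-human IgG Fc detection with TMB.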

T1 sequence (P01375 77-233 limits assumed, species assumed): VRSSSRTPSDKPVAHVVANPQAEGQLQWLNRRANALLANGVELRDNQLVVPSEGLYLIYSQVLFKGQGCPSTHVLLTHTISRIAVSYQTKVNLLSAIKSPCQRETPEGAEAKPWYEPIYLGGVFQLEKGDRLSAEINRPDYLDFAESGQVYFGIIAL

Row | IC50 [µM] | Compound
1 | > 100 | N[C@@H]1CC(=O)N[C@H](Cc2cccs2)C(=O)N[C@@H](Cc2ccc(-c3ccccc3)cc2)C(=O)N[C@H](Cc2ccccc2)C(=O)N[C@H](C(=O)O)Cc2ccc(cc2)NC1=O [Compound 374]
2 | > 100 | CC(=O)N[C@H]1CC(=O)Nc2ccc(cc2)C[C@@H](C(=O)O)NC(=O)[C@@H](Cc2ccccc2)NC(=O)[C@H](Cc2ccc(-c3ccccc3)cc2)NC(=O)[C@@H](Cc2cccs2)NC1=O [Compound 375] (Ac-D[d2Thi][Bip][dF][Phe(4-NH2)]-OH; lactam 1-5)
3 | 10 to 30 | CC(=O)N[C@@H]1CC(=O)Nc2ccc(cc2)C[C@@H](C(=O)O)NC(=O)[C@@H](Cc2ccccc2)NC(=O)[C@H](Cc2ccc(-c3ccccc3)cc2)NC(=O)[C@@H](Cc2cccs2)NC1=O [Compound 376] (Ac-[dD][d2Thi][Bip][dF][Phe(4-NH2)]-OH; lactam 1-5)
4 | > 100 | CC(=O)N[C@H]1CC(=O)N[C@H](Cc2cccs2)C(=O)N[C@@H](Cc2ccc(-c3ccccc3)cc2)C(=O)N[C@H](Cc2ccccc2)C(=O)N[C@H](C(=O)O)Cc2ccc(cc2)NC1=O [Compound 377]
5 | 10 to 30 | CC(=O)N[C@@H]1CC(=O)N[C@H](Cc2cccs2)C(=O)N[C@@H](Cc2ccc(-c3ccccc3)cc2)C(=O)N[C@H](Cc2ccccc2)C(=O)N[C@H](C(=O)O)Cc2ccc(cc2)NC1=O [Compound 378]
6 | < 10 | O=C(O)CNC(=O)[C@@H]1Cc2ccc(cc2)OCC(=O)N[C@@H](Cc2cccs2)C(=O)N[C@H](Cc2ccc(-c3ccccc3)cc2)C(=O)N[C@@H](Cc2ccccc2)C(=O)N1 [Compound 383]
7 | > 100 | O=C1COc2ccc(cc2)C[C@@H](C(=O)N[C@@H](Cc2ccc(O)cc2)C(=O)O)NC(=O)[C@H](Cc2ccccc2)NC(=O)[C@@H](Cc2ccc(-c3ccccc3)cc2)NC(=O)[C@H](Cc2cccs2)N1 [Compound 387]
8 | > 100 | CC(C)(C)OC(=O)C[C@H](NC(=O)[C@@H]1Cc2ccc(cc2)OCC(=O)N[C@@H](Cc2cccs2)C(=O)N[C@H](Cc2ccc(-c3ccccc3)cc2)C(=O)N[C@@H](Cc2ccccc2)C(=O)N1)C(=O)O [Compound 389]
9 | 10 to 30 | O=C(O)CN(Cc1ccccc1)C(=O)[C@@H]1Cc2ccc(cc2)OCC(=O)N[C@@H](Cc2cccs2)C(=O)N[C@H](Cc2ccc(-c3ccccc3)cc2)C(=O)N[C@@H](Cc2ccccc2)C(=O)N1 [Compound 392]
10 | < 10 | CC(=O)O[C@H]1C(=O)Nc2ccc(cc2)C[C@H](C(=O)N[C@@H](Cc2ccccc2)C(=O)O)NC(=O)[C@@H](Cc2ccccc2)NC(=O)[C@H](Cc2ccc(-c3ccccc3)cc2)NC(=O)[C@@H](Cc2cccs2)NC(=O)[C@@H]1OC(C)=O [Compound 394] ([d2Thi][Bip][dF][dPhe(4-NH2)]F-OH; linker N-4 via Tartaroyl(2R,3R-(OAc)2))
11 | > 100 | O=C1COc2ccc(cc2)C[C@@H](C(=O)O)NC(=O)[C@H](Cc2ccccc2)NC(=O)[C@@H](Cc2ccc(C(F)(F)F)cc2)NC(=O)[C@H](Cc2cccs2)N1 [Compound 397]
12 | < 10 | O=C1COc2ccc(cc2)C[C@@H](C(=O)O)NC(=O)[C@H](Cc2ccccc2)NC(=O)[C@H](Cc2ccc(F)cc2)NC(=O)[C@H](Cc2cccs2)N1 [Compound 398]
13 | > 100 | O=C1COc2ccc(cc2)C[C@@H](C(=O)O)NC(=O)[C@H](Cc2ccccc2)NC(=O)[C@@H](Cc2ccc(Br)cc2)NC(=O)[C@H](Cc2cccs2)N1 [Compound 399]
14 | < 10 | O=C1COc2ccc(cc2)C[C@@H](C(=O)O)NC(=O)[C@H](Cc2ccccc2)NC(=O)[C@H](Cc2cccc(C(F)(F)F)c2)NC(=O)[C@H](Cc2cccs2)N1 [Compound 400]
15 | < 10 | O=C(O)CCNC(=O)[C@@H]1Cc2ccc(cc2)NC(=O)[C@H](O)[C@@H](O)C(=O)N[C@H](Cc2cccs2)C(=O)N[C@@H](Cc2ccc(-c3ccccc3)cc2)C(=O)N[C@H](CCc2ccccc2)C(=O)N1 [Compound 401]
16 | 10 to 30 | O=C(O)CCCNC(=O)[C@@H]1Cc2ccc(cc2)NC(=O)[C@H](O)[C@@H](O)C(=O)N[C@H](Cc2cccs2)C(=O)N[C@@H](Cc2ccc(-c3ccccc3)cc2)C(=O)N[C@H](CCc2ccccc2)C(=O)N1 [Compound 402]
17 | > 100 | O=C1CCC(=O)N[C@H](CCc2ccccc2)C(=O)N[C@@H](Cc2ccc(-c3ccccc3)cc2)C(=O)N[C@H](Cc2ccccc2)C(=O)N[C@H](C(=O)N[C@@H](Cc2cccnc2)C(=O)O)Cc2ccc(cc2)N1 [Compound 403] ([d(hPhe)][Bip][dF][Phe(4-NH2)][3Pal]-OH; linker N-4 via Suc)

Row | IC50 [µM] | Compound
18 | < 10 | O=C1COc2ccc(cc2)C[C@@H](C(=O)NCC2(C(=O)O)CC2)NC(=O)[C@@H](CCc2ccccc2)NC(=O)[C@H](Cc2ccc(-c3ccccc3)cc2)NC(=O)[C@@H](Cc2cccs2)N1 [Compound 404]
19 | > 100 | O=C(O)[C@H](Cc1cccnc1)NC(=O)[C@@H]1Cc2ccc(cc2)NC(=O)[C@H](O)[C@@H](O)C(=O)N[C@H](Cc2cccs2)C(=O)N[C@@H](Cc2ccc(-c3ccccc3)cc2)C(=O)N[C@H](CCc2ccccc2)C(=O)N1 [Compound 405]
20 | > 100 | COc1ccc(C[C@@H]2NC(=O)[C@H](Cc3cccs3)NC(=O)COc3ccc(cc3)C[C@@H](C(=O)O)NC(=O)[C@H](Cc3ccccc3)NC2=O)cc1OC [Compound 406]
21 | > 100 | COc1cccc(C[C@H]2NC(=O)[C@H](Cc3cccs3)NC(=O)COc3ccc(cc3)C[C@@H](C(=O)O)NC(=O)[C@H](Cc3ccccc3)NC2=O)c1 [Compound 407]
22 | > 100 | COc1cccc(C[C@@H]2NC(=O)[C@H](Cc3cccs3)NC(=O)COc3ccc(cc3)C[C@@H](C(=O)O)NC(=O)[C@H](Cc3ccccc3)NC2=O)c1 [Compound 408]
23 | < 10 | CC(=O)O[C@H]1C(=O)Nc2ccc(cc2)C[C@H](C(=O)N[C@@H](Cc2ccccc2)C(=O)O)NC(=O)[C@@H](CCc2ccccc2)NC(=O)[C@H](Cc2ccc(-c3ccccc3)cc2)NC(=O)[C@@H](Cc2cccs2)NC(=O)[C@@H]1OC(C)=O [Compound 409] ([d2Thi][Bip][d(hPhe)][dPhe(4-NH2)]F-OH; linker N-4 via Tartaroyl(2R,3R-(OAc)2))
24 | > 100 | CC(=O)O[C@H]1C(=O)Nc2ccc(cc2)C[C@H](C(=O)N[C@@H](Cc2ccccc2)C(=O)O)NC(=O)[C@H](CCc2ccccc2)NC(=O)[C@@H](Cc2ccc(-c3ccccc3)cc2)NC(=O)[C@H](Cc2cccs2)NC(=O)[C@@H]1OC(C)=O [Compound 411] ([2Thi][dBip][hPhe][dPhe(4-NH2)]F-OH; linker N-4 via Tartaroyl(2R,3R-(OAc)2))
25 | < 10 | CC(=O)O[C@H]1C(=O)Nc2ccc(cc2)C[C@@H](C(=O)N[C@@H](Cc2ccccc2)C(=O)O)NC(=O)[C@H](CCc2ccccc2)NC(=O)[C@@H](Cc2ccc(-c3ccccc3)cc2)NC(=O)[C@H](Cc2cccs2)NC(=O)[C@@H]1OC(C)=O [Compound 412] ([2Thi][dBip][hPhe][Phe(4-NH2)]F-OH; linker N-4 via Tartaroyl(2R,3R-(OAc)2))
26 | > 100 | CC(=O)O[C@H]1C(=O)Nc2ccc(cc2)C[C@H](C(=O)N[C@@H](Cc2ccccc2)C(=O)O)NC(=O)[C@H](Cc2ccccc2)NC(=O)[C@@H](Cc2ccc(-c3ccccc3)cc2)NC(=O)[C@H](Cc2cccs2)NC(=O)[C@@H]1OC(C)=O [Compound 413] ([2Thi][dBip]F[dPhe(4-NH2)]F-OH; linker N-4 via Tartaroyl(2R,3R-(OAc)2))
27 | > 100 | CC(=O)O[C@H]1C(=O)Nc2ccc(cc2)C[C@@H](C(=O)N[C@@H](Cc2ccccc2)C(=O)O)NC(=O)[C@H](Cc2ccccc2)NC(=O)[C@@H](Cc2ccc(-c3ccccc3)cc2)NC(=O)[C@H](Cc2cccs2)NC(=O)[C@@H]1OC(C)=O [Compound 414] ([2Thi][dBip]F[Phe(4-NH2)]F-OH; linker N-4 via Tartaroyl(2R,3R-(OAc)2))
28 | > 100 | CC(=O)O[C@H]1C(=O)Nc2ccc(cc2)C[C@H](C(=O)N[C@@H](Cc2ccccc2)C(=O)O)NC(=O)[C@H](CCc2ccccc2)NC(=O)[C@@H](Cc2ccc(Br)cc2)NC(=O)[C@H](Cc2cccs2)NC(=O)[C@@H]1OC(C)=O [Compound 415] ([2Thi][dPhe(4-Br)][hPhe][dPhe(4-NH2)]F-OH; linker N-4 via Tartaroyl(2R,3R-(OAc)2))
29 | > 100 | CC(=O)O[C@H]1C(=O)Nc2ccc(cc2)C[C@@H](C(=O)N[C@@H](Cc2ccccc2)C(=O)O)NC(=O)[C@H](CCc2ccccc2)NC(=O)[C@@H](Cc2ccc(Br)cc2)NC(=O)[C@H](Cc2cccs2)NC(=O)[C@@H]1OC(C)=O [Compound 416] ([2Thi][dPhe(4-Br)][hPhe][Phe(4-NH2)]F-OH; linker N-4 via Tartaroyl(2R,3R-(OAc)2))
30 | > 100 | CC(=O)O[C@H]1C(=O)Nc2ccc(cc2)C[C@H](C(=O)N[C@@H](Cc2ccccc2)C(=O)O)NC(=O)[C@H](Cc2ccccc2)NC(=O)[C@@H](Cc2ccc(Br)cc2)NC(=O)[C@H](Cc2cccs2)NC(=O)[C@@H]1OC(C)=O [Compound 417] ([2Thi][dPhe(4-Br)]F[dPhe(4-NH2)]F-OH; linker N-4 via Tartaroyl(2R,3R-(OAc)2))
31 | > 100 | CC(=O)O[C@H]1C(=O)Nc2ccc(cc2)C[C@@H](C(=O)N[C@@H](Cc2ccccc2)C(=O)O)NC(=O)[C@H](Cc2ccccc2)NC(=O)[C@@H](Cc2ccc(Br)cc2)NC(=O)[C@H](Cc2cccs2)NC(=O)[C@@H]1OC(C)=O [Compound 418] ([2Thi][dPhe(4-Br)]F[Phe(4-NH2)]F-OH; linker N-4 via Tartaroyl(2R,3R-(OAc)2))
32 | > 100 | O=C(O)CCNC(=O)[C@@H]1Cc2ccc(cc2)C(=O)NCCC(=O)N[C@H](CCc2ccccc2)C(=O)N[C@@H](Cc2ccc(-c3ccccc3)cc2)C(=O)N[C@H](Cc2ccccc2)C(=O)N1 [Compound 420] ([βAla][d(hPhe)][Bip][dF][Phe(4-COOH)][βAla]-OH; lactam N-5)
33 | < 10 | O=C(O)CCCNC(=O)[C@@H]1Cc2ccc(cc2)C(=O)NCCC(=O)N[C@H](CCc2ccccc2)C(=O)N[C@@H](Cc2ccc(-c3ccccc3)cc2)C(=O)N[C@H](Cc2ccccc2)C(=O)N1 [Compound 421] ([βAla][d(hPhe)][Bip][dF][Phe(4-COOH)][GABA]-OH; lactam N-5)
